According to US20080261994A1, “CYCLOPROPANE COMPOUNDS AND PHARMACEUTICAL USE THEREOF” (Japan Tobacco Inc., priority 2003, published 2008):
Read-outs that look alike come from different tables or passages of the source.

Legend:
Type in all cases: biochemical
aggrecanase-1 = biological target: T1, aggrecanase-1 (Homo sapiens, UniProt O75173); assay: Aggrecanase-1 inhibitory action (Particle Assay, GAG release from aggrecan-containing polyacrylamide particles)
T1 sequence (O75173 213-837): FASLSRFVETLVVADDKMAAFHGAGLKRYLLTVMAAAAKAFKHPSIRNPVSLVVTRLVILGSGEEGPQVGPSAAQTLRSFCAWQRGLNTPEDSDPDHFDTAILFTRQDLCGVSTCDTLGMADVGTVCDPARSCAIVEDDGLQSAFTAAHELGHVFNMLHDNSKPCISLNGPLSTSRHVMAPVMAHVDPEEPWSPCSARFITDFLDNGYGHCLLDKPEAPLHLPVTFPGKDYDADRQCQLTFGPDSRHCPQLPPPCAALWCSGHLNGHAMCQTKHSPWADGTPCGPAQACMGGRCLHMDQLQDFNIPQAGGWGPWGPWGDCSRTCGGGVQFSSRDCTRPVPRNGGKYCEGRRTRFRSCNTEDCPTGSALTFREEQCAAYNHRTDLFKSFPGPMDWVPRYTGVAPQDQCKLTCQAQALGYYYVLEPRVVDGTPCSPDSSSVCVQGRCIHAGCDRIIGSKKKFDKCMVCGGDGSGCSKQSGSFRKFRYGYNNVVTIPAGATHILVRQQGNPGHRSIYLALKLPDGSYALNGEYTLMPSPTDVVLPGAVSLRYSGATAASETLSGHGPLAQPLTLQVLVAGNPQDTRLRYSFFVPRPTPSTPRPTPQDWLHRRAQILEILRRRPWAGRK
How it was run: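 Enzyme and compound incubated with aggrecan-containing polyacrylamide particles in Tris-HCl buffer at 37° C for 15 h. Released GAG in supernatant measured with 1,9-dimethylmethylene blue at 595 nm against chondroitin sulfate standard; % inhibition from enzyme-free and inhibitor-free wells, reported as TC50 (μM).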

MMP-1 = biological target: T2, MMP-1 (Homo sapiens, UniProt P03956); assay: MMP-1 inhibitory action (Type I collagen Activity Measurement kit, FITC-labeled collagen type I)
T2 sequence (P03956 100-469): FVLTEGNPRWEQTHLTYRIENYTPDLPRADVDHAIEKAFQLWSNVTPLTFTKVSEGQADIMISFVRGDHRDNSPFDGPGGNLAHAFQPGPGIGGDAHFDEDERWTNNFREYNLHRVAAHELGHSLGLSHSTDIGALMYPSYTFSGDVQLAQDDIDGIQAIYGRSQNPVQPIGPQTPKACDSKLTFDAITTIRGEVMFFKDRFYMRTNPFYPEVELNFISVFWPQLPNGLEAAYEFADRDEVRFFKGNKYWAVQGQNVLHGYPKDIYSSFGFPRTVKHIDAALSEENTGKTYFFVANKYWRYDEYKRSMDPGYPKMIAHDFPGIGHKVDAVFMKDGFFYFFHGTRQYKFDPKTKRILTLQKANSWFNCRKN

Recombinant Human MMP-13 = biological target: T3, Recombinant Human MMP-13 (Homo sapiens, UniProt P45452); assay: MMP-13 inhibitory activity (MMP-13 specific fluorescent substrate with quencher)
T3 construct: purchased R&D systems 511-MM
How it was run: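 Recombinant human MMP-13 with test compound, reaction started with quenched fluorogenic peptide 7-MCA-Pro-CHA-Gly-NVal-His-Ala-DPA in Tris-HCl buffer, 1 h at 25 °C, stopped with acetic acid. Fluorescence at Ex 325/Em 405 nm; % inhibition versus enzyme-free and inhibitor-free wells, reported as IC50 (μM).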

[1] = Experimental Example 1, read-out: IC50 AG1
[2] = Experimental Example 2, read-out: IC50 MMP1
[3] = Experimental Example 3, read-out: IC50 MMP13
[4] = aggrecanase-1 inhibitory action, read-out: IC50 AG1 (Experimental Example 1)
[5] = MMP-1 inhibitory action, FITC-labeled collagen type I, 37° C. for 3 hr, read-out: IC50 MMP1 (Experimental Example 2)
[6] = Recombinant Human MMP-13, fluorescent substrate, 25° C. for 1 h, read-out: IC50 MMP13 (Experimental Example 3)

Row | Compound | IC50 (aggrecanase-1; [1]) [nM] | IC50 (MMP-1; [2]) [nM] | IC50 (Recombinant Human MMP-13; [3]) [nM] | IC50 (aggrecanase-1; [4]) [nM] | IC50 (MMP-1; [5]) [nM] | IC50 (Recombinant Human MMP-13; [6]) [nM]
1 | CC1[C@H](c2ccccc2)[C@]1(NS(=O)(=O)c1cn2cc(-c3ccccc3)nc2s1)C(=O)O (stereo partly drawn) [Example 2-499] | < 1000 | < 1000 | < 100 | – | – | –
2 | CC1[C@H](c2ccccc2)[C@]1(NS(=O)(=O)c1ccc(-c2cc(C(F)F)no2)s1)C(=O)O (stereo partly drawn) [Example 2-354] | < 100 | ≥ 1000 | < 1000 | – | – | –
3 | CC1[C@H](c2ccccc2)[C@]1(NS(=O)(=O)N1CCCN(c2ccc(Cl)cc2)CC1)C(=O)O (stereo partly drawn) [Example 2-454] | < 1000 | ≥ 10000 | ≥ 1000 | – | – | –
4 | O=C1O[C@@H]([C@H]2C[C@@]2(NS(=O)(=O)c2ccc(-c3ccc(Cl)cc3)s2)C(=O)O)CN1Cc1ccccc1 [Example 2-139] | – | – | – | ≥ 1000 | ≥ 10000 | ≥ 1000
5 | CCNC(=O)c1ccc(S(=O)(=O)NC2(C(=O)O)CC2c2ccccc2)s1 (stereo not drawn) [Example 2-104] | – | – | – | ≥ 10000 | ≥ 10000 | ≥ 10000
6 | CCC1(c2ccccc2)CC1(NS(=O)(=O)c1ccc2c(c1)Cc1cc(F)ccc1-2)C(=O)O (stereo not drawn) [Example 2-146] | – | – | – | < 1000 | ≥ 10000 | < 1000
7 | O=C(O)C1(CS(=O)(=O)c2ccc(-c3ccc(Cl)cc3)s2)CC1c1ccccc1 (stereo not drawn) [Example 2-187] | – | – | – | ≥ 10000 | ≥ 10000 | ≥ 10000
8 | COC(=O)Nc1cccc(C2CC2(NS(=O)(=O)c2ccc(-c3ccc(Cl)cc3)cc2)C(=O)O)c1 (stereo not drawn) [Example 1-41] | – | – | – | < 1000 | ≥ 1000 | < 100
9 | CC1[C@H](c2ccccc2)[C@]1(NS(=O)(=O)N1CCN(c2ccncc2)CC1)C(=O)O (stereo partly drawn) [Example 2-533] | ≥ 1000 | ≥ 1000 | ≥ 1000 | – | – | –
10 | O=C(NC1CCCC1)c1ccc(S(=O)(=O)NC2(C(=O)O)CC2c2ccccc2)s1 (stereo not drawn) [Example 2-95] | – | – | – | ≥ 10000 | ≥ 10000 | ≥ 10000
11 | O=C(O)C1(NS(=O)(=O)c2ccc(-c3ccc(Cl)cc3)s2)C2CCCc3ccccc3C21 (stereo not drawn) [Example 2-8, (1R*,1aS*,8bS*)-1-[5-(4-chloro-phenyl)thiophene-2-sulfonylamino]-1,1a,2,3,4,8b-hexahydrobenzo[a]cyclopropane[c]cyclohepten-1-carboxylic acid] | – | – | – | < 100 | ≥ 1000 | < 100
12 | CCc1cc(-c2ccc(S(=O)(=O)N[C@@]3(C(=O)O)C[C@@H]3c3ccccc3)s2)no1 [Example 2-92] | – | – | – | < 100 | < 1000 | < 100
13 | O=C(O)C1(NS(=O)(=O)c2ccc(-c3ccc(Cl)cc3)s2)CC1COc1ccccc1 (stereo not drawn) [Example 2-52] | – | – | – | < 1000 | ≥ 10000 | < 1000
14 | COCc1cccc(C2CC2(NS(=O)(=O)c2ccc(-c3ccc(Cl)cn3)s2)C(=O)O)c1 (stereo not drawn) [Example 2-57] | – | – | – | < 1000 | ≥ 10000 | < 100
15 | O=C(O)C1(NS(=O)(=O)c2ccc(-c3ccc(Cl)cc3)s2)CC1c1ccccc1Oc1cccnc1 (stereo not drawn) [Example 2-24] | – | – | – | < 1000 | ≥ 10000 | < 1000
16 | CC1[C@H](c2ccccc2)[C@]1(NS(=O)(=O)c1ccc(OCc2ccc(Cl)cc2Cl)cc1)C(=O)NO (stereo partly drawn) [Example 2-325] | ≥ 1000 | ≥ 10000 | ≥ 1000 | – | – | –
17 | Cc1ccc(-c2ccc(S(=O)(=O)N[C@@]3(C(=O)O)C[C@@H]3c3ccccc3)s2)s1 [Example 2-39] | – | – | – | < 1000 | ≥ 1000 | < 100
18 | O=C(NCC1(c2ccccc2)CC1(NS(=O)(=O)c1ccc(-c2ccc(Cl)cc2)s1)C(=O)O)C1CCCCC1 (stereo not drawn) [Example 2-380] | < 1000 | ≥ 10000 | < 1000 | – | – | –
19 | O=C(O)C1(NS(=O)(=O)c2ccc(-c3ccc(Cl)cc3)cc2)CC1c1cccc(NCc2cccnc2)c1 (stereo not drawn) [Example 1-3] | – | – | – | < 100 | ≥ 1000 | < 100
20 | O=C(O)C1(NS(=O)(=O)c2ccc(-c3ccc(Cl)cc3)s2)CC1(COCc1ccccc1)c1ccccc1 (stereo not drawn) [Example 2-356] | < 1000 | < 1000 | < 1000 | – | – | –

Next, values leading:

Row | IC50 (aggrecanase-1; [1]) [nM] | IC50 (MMP-1; [2]) [nM] | IC50 (Recombinant Human MMP-13; [3]) [nM] | IC50 (aggrecanase-1; [4]) [nM] | IC50 (MMP-1; [5]) [nM] | IC50 (Recombinant Human MMP-13; [6]) [nM] | Compound
21 | < 100 | < 1000 | < 100 | – | – | – | C[C@]1(c2ccc(F)cc2)C[C@@]1(NS(=O)(=O)c1ccc(-c2cc(C(F)(F)F)on2)s1)C(=O)O [Example 2-621]
22 | < 1000 | ≥ 1000 | < 1000 | – | – | – | C[C@]1(c2ccccc2)C[C@@]1(NS(=O)(=O)c1ccc(-c2ccc(O)cc2)s1)C(=O)O [Example 2-582]
23 | < 1000 | ≥ 1000 | < 1000 | – | – | – | CC(C)N1CCN(Cc2cccc([C@H]3C[C@@]3(NS(=O)(=O)c3ccc(-c4cc(C(F)(F)F)on4)s3)C(=O)O)c2)CC1 [Example 2-304]
24 | ≥ 1000 | ≥ 10000 | ≥ 1000 | – | – | – | C[C@]1(c2ccccc2)C[C@@]1(NS(=O)(=O)c1ccc(-c2cc(Cl)cc(Cl)c2)s1)C(=O)O [Example 2-448]
25 | – | – | – | < 100 | < 1000 | < 100 | CC(F)(F)c1cc(-c2ccc(S(=O)(=O)N[C@@]3(C(=O)O)C[C@]3(C)c3ccccc3)s2)no1 [Example 2-107]
26 | – | – | – | < 100 | ≥ 1000 | < 1000 | C[C@]1(c2ccccc2)C[C@@]1(NS(=O)(=O)c1ccc(-c2cc(C(F)(F)F)on2)s1)C(=O)O [Example 2-6, (1S,2R)-2-methyl-2-phenyl-1-[5-(5-trifluoromethyl-isoxazol-3-yl)-thiophene-2-sulfonylamino]-cyclopropanecarboxylic acid]
27 | ≥ 1000 | ≥ 10000 | ≥ 10000 | – | – | – | CCOC(=O)c1cccc(-c2ccc(S(=O)(=O)N[C@@]3(C(=O)O)C[C@]3(C)c3ccccc3)s2)c1 [Example 2-478]
28 | < 100 | < 1000 | ≥ 1000 | – | – | – | CC1(c2cccc(Cl)c2)CC1(NS(=O)(=O)c1ccc(-c2cc(C(F)(F)F)on2)s1)C(=O)O (stereo not drawn) [Example 2-612]
29 | < 1000 | ≥ 1000 | ≥ 1000 | – | – | – | C[C@]1(c2ccccc2)C[C@@]1(NS(=O)(=O)c1ccc(-c2ncc(F)cc2F)s1)C(=O)O [Example 2-466]
30 | < 1000 | ≥ 1000 | < 1000 | – | – | – | C[C@]1(c2ccccc2)C[C@@]1(NS(=O)(=O)c1ccc(-c2ccc(C#N)c(F)c2)s1)C(=O)O [Example 2-593]
31 | ≥ 1000 | ≥ 10000 | ≥ 10000 | – | – | – | O=C(O)C1(NS(=O)(=O)c2ccc(-c3cc(C(F)(F)F)on3)s2)CC1c1cc(CCO)on1 (stereo not drawn) [Example 2-316]
